# Laboratory results: patent US7745483B2, “2-Halofuryl-thienyl-3-carboxamides” (Bayer CropScience AG, priority 2004, dated 2010)
# System: Puccinia recondita
# Assay: Puccinia test (wheat)/protective
# Format: in vivo
# Conditions: 240 h, protective, application rate 500 g/ha, evaluation 10 days after inoculation, read-out: Efficacy in %
# Method: [table] To produce a suitable preparation of active compound, 1 part by weight of active compound is mixed with the stated amounts of solvent and emulsifier, and the concentrate is diluted with water to the desired concentration. To test for protective activity, young plants are sprayed with the preparation of active compound at the stated application rate. After the spray coating has dried on, the plants are sprayed with a conidia suspension Puccinia recondita. The plants remain in an incubation cabin at 20° C. and 100% relative atmospheric humidity for 48 hours. The plants are then placed in a greenhouse at a temperature of about 20° C. and a relative atmospheric humidity of 80% to promote the development of rust pustules. Evaluation is carried out 10 days after the inoculation. 0% means an efficacy which corresponds to that of the control, whereas an efficacy of 100% means that no infection is observed.
row,Structure (SMILES),pest or weed control at 500 g/ha [%]
1,O=C(Nc1ccccc1-c1ccc(Cl)cc1)c1ccoc1I [drawing 267],100
2,CC(C)CC(C)c1sccc1NC(=O)c1ccsc1I (centres unmarked) [drawing 281],100
3,CC(C)CC(C)c1ccccc1NC(=O)c1ccoc1I (centres unmarked) [drawing 261],100
4,CC(C)(C)CCc1ccccc1NC(=O)c1ccsc1I [drawing 263],97
5,O=C(Nc1ccccc1-c1ccc(Br)cc1)c1ccoc1I [drawing 268],100
6,CC(C[Si](C)(C)C)c1cc(F)ccc1NC(=O)c1ccsc1I (centres unmarked) [drawing 287],100
7,C[Si](C)(C)CCc1ccccc1NC(=O)c1ccsc1I [drawing 262],97
8,CC(C[Si](C)(C)C)c1ccccc1NC(=O)c1ccoc1I (centres unmarked) [drawing 275],100
9,CO/N=C/c1ccc(-c2ccccc2NC(=O)c2ccsc2I)cc1F [drawing 280],100
10,CC(CC(C)(C)C)c1ccccc1NC(=O)c1ccsc1I (centres unmarked) [drawing 272],100
11,O=C(Nc1ccccc1-c1ccc(Br)c(Cl)c1)c1ccsc1I [drawing 265],100
12,O=C(Nc1ccccc1-c1ccc(Cl)c(Cl)c1)c1ccsc1Br [drawing 284],100
13,O=C(Nc1ccccc1-c1ccc(Cl)c(Cl)c1)c1ccsc1I [drawing 271],100
14,CC(C)(C)CCc1cc(F)ccc1NC(=O)c1ccsc1I [drawing 266],100
15,O=C(Nc1ccccc1-c1ccc(Cl)c(F)c1)c1ccsc1I [drawing 274],94
16,C=C(CC(C)(C)C)c1ccccc1NC(=O)c1ccsc1I [drawing 273],93
17,O=C(Nc1ccc(F)cc1-c1ccc(Cl)c(Cl)c1)c1ccsc1I [drawing 277],100
18,CC1CC(C)(C)c2cccc(NC(=O)c3ccsc3I)c21 (centres unmarked) [drawing 278],100
19,CC(CC(C)(C)C)c1ccccc1NC(=O)c1ccoc1I (centres unmarked) [drawing 269],100
20,CC(CC(C)(C)C)c1ccccc1NC(=O)c1ccsc1Br (centres unmarked) [drawing 283],100
21,CC(C)CC(C)c1ccccc1NC(=O)c1ccsc1Br (centres unmarked) [drawing 282],100
22,O=C(Nc1ccccc1-c1ccc(Cl)c(F)c1)c1ccoc1I [drawing 270],100
23,CC(C)CC(C)c1cc(F)ccc1NC(=O)c1ccsc1I (centres unmarked) [drawing 279],100

# System: Alternaria solani
# Assay: Alternaria test (tomato)/protective
# Format: in vivo
# Conditions: protective, application rate 750 g/ha, evaluation 7 days after inoculation
# Method: [table] To produce a suitable preparation of active compound, 1 part by weight of active compound is mixed with the stated amounts of solvent and emulsifier, and the concentrate is diluted with water to the desired concentration. To test for protective activity, young tomato plants are sprayed with the preparation of active compound at the stated application rate. One day after the treatment, the plants are inoculated with a spore suspension of Alternaria solani and then remain at 100% relative humidity and at 20° C. for 24 hours. The plants then remain at 96% relative atmospheric humidity and a temperature of 20° C. Evaluation is carried out 7 days after the inoculation. 0% means an efficacy which corresponds to that of the control, whereas an efficacy of 100% means that no infection is observed.
row,Structure (SMILES),Efficacy in % [%]
1,CC(C)(C)CCc1ccccc1NC(=O)c1ccsc1I [drawing 288],94
2,CC(C)CC(C)c1ccccc1NC(=O)c1ccoc1I (centres unmarked) [drawing 290],94
3,CC(C)CC(C)c1ccccc1NC(=O)c1ccsc1I (centres unmarked) [drawing 289],100
